Experimental data: ChEMBL document CHEMBL1944535, “Synthesis, in vitro binding studies and docking of long-chain arylpiperazine nitroquipazine analogues, as potential serotonin transporter inhibitors” (Eur J Med Chem, 2012)

What was measured:
[1] = molecular target: Sodium-dependent serotonin transporter (Rattus norvegicus, UniProt P31652); assay: Displacement of [3H]-Citalopram from SERT in rat cerebral cortex homogenates after 1 hr by liquid scintillation counter; format: tissue-based
[2] = molecular target: Sodium-dependent serotonin transporter (Homo sapiens, UniProt P31645); assay: Displacement of [3H]-5HT from human SERT
Sodium-dependent serotonin transporter (Homo sapiens, UniProt P31645), sequence (P31645 whole entry): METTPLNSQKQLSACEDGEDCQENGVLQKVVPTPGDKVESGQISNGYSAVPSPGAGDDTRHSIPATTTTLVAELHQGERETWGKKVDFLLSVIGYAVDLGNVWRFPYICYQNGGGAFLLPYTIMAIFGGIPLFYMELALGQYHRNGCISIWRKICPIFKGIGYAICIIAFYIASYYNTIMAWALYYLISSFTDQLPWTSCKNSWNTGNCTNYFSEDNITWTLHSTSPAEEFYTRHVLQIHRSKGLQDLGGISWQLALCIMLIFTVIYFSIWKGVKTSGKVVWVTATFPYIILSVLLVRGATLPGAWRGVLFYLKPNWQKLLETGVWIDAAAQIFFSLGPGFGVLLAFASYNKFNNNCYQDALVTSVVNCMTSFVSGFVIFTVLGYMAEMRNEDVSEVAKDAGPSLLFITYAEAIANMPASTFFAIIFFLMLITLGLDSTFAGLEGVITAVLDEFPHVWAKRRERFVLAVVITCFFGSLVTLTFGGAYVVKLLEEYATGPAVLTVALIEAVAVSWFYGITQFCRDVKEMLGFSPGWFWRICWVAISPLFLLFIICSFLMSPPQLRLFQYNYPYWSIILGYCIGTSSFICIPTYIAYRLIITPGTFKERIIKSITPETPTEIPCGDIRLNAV

Sodium-dependent serotonin transporter (Rattus norvegicus, UniProt P31652), sequence (P31652 whole entry): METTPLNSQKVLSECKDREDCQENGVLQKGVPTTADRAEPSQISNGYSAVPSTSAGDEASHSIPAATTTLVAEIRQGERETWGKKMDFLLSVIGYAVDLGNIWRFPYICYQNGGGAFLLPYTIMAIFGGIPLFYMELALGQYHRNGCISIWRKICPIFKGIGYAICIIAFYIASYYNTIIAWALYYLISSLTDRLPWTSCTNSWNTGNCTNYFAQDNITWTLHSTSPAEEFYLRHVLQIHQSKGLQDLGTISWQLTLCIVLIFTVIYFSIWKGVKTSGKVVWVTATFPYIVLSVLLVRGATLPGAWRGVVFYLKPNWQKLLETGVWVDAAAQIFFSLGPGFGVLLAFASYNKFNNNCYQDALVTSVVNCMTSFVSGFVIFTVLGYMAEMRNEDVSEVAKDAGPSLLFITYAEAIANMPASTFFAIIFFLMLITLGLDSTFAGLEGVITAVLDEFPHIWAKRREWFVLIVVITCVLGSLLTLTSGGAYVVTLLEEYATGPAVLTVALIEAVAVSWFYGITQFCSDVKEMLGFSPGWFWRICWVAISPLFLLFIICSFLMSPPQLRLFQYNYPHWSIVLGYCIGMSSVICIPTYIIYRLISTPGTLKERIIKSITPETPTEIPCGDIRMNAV

SMILES	IC50 [1]	Ki [2]
CC1CN(c2ccc3cc([N+](=O)[O-])ccc3n2)CCN1CCCCN1C(=O)CCCC1=O (stereo unspecified)	268 nM	
O=[N+]([O-])c1ccc2nc(N3CCNCC3)ccc2c1 [6-NITROQUIPAZINE]		0.17 nM
O=C1CC2(CCCC2)CC(=O)N1CCCCN1CCN(c2ccc3cc([N+](=O)[O-])ccc3n2)CC1	25900 nM	
CC1CN(c2ccc3ccccc3n2)CCN1CCCCN1C(=O)CC(C)(C)CC1=O (stereo unspecified)	171 nM	
CC(=O)Nc1ccc2nc(N3CCN(CCCCN4C(=O)CC5(CCCC5)CC4=O)CC3)ccc2c1	18800 nM	
CC1CN(c2ccc3cc([N+](=O)[O-])ccc3n2)CCN1CCCCN1C(=O)CC(C)(C)CC1=O (stereo unspecified)	807 nM	
O=C1CCCC(=O)N1CCCCN1CCN(c2ccc3cc([N+](=O)[O-])ccc3n2)CC1	921 nM	
O=C1c2ccccc2C(=O)N1CCCCN1CCN(c2ccc3cc([N+](=O)[O-])ccc3n2)CC1	4130 nM	
CC1(C)CC(=O)N(CCCCN2CCN(c3ccc4cc([N+](=O)[O-])ccc4n3)CC2)C(=O)C1	616 nM	
CC1(C)CC(=O)N(CCCCN2CCN(c3ccc4c(Cl)cccc4n3)CC2)C(=O)C1	2800 nM	
CC1CN(c2ccc3cc([N+](=O)[O-])ccc3n2)CCN1CCCCN1C(=O)CC2(CCCC2)CC1=O (stereo unspecified)	1350 nM	
